# Publication PMC12567141, “Design, Synthesis and Biological Evaluation of Pyrazolopyrimidine Derivatives as Aryl Hydrocarbon Receptor Antagonists for Colorectal Cancer Immunotherapy” (Pharmaceutics, 2025)
# Assay: Pharmacokinetic study in mouse
# Assay type: in vivo, ICR mice
# Conditions: male, ICR, plasma
# Experimental: To estimate the pharmacokinetic parameters in animals, the drug was administered via intravenous (I.V., 5 mg/kg) and oral (P.O., 10 mg/kg) routes in seven-week-old male ICR mice (Orient Bio Inc., Seongnam, Korea). Blood samples were collected at 0.083 (for I.V.), 0.5, 1, 2, 4, 8, and 24 h after drug administrations and then immediately centrifuged at 10,000× g for 3 min. The plasma concentrations of the drug were determined via LC-MS/MS. The plasma concentration–time profiles and pharmacokinetic parameters were estimated using the non-compartmental method with the nonlinear least squares regression program WinNonlin 5.3 (Pharsight, Mountain View, CA, USA).
structure (smiles),measurement,setting,value
"CC(C)n1cc2nc(-c3cc(F)cc(F)c3)nc(NCCc3c[nH]c4ccccc34)c2n1 [Compound 7k, N-(2-(1H-indol-3-yl)ethyl)-5-(3,5-difluorophenyl)-2-isopropyl-2H-pyrazolo [4,3-d]pyrimidin-7-amine]",AUC(0-inf),"IV, 5 mg/kg",5.86 µg·h/mL
same,AUC(0-t),"IV, 5 mg/kg",5.75 ± 0.74 µg·h/mL
same,clearance,"IV, 5 mg/kg",0.86 L/h/kg
same,half-life,"IV, 5 mg/kg",4.54 h
same,Vd,"IV, 5 mg/kg, read-out: Vss (converted)",3.91 L/kg
same,AUC(0-inf),"PO, 10 mg/kg",8.23 µg·h/mL
same,AUC(0-t),"PO, 10 mg/kg",8.16 ± 3.67 µg·h/mL
same,Cmax,"PO, 10 mg/kg",2.38 µg/mL
same,Tmax,"PO, 10 mg/kg",0.67 ± 0.29 h
same,half-life,"PO, 10 mg/kg",3.77 h
same,bioavailability,"PO, 10 mg/kg, read-out: Ft (%) bioavailability (converted)",71%
